According to patent publication US12077503B2, “Substituted cyclic amides and their use as herbicides” (FMC CORPORATION, priority 2015, dated 2024):

Experiments:
Format in all cases: in vivo
[1] = tested on: barnyardgrass (Echinochloa crus-galli); test: Test G Pre-Emergence Protocol; details: evaluated after 13 days
Protocol: (§1) Seeds of corn (Zea mays), giant foxtail (Setaria faberi), barnyardgrass (Echinochloa crus-galli), ivy-leaved morning glory (Ipomoea hederacea), redroot pigweed (Amaranthus retroflexus) and velvetleaf (Abutilon theophrasti) were sown in standard soil in pots. After cultivation for one day under controlled conditions in a glasshouse (at 24/16° C., day/night; 14 hours light; 65% humidity), the plants were sprayed with an aqueous spray solution derived from the formulation of the technical active ingredient in acetone/water (50:50) solution containing 0.5% Tween 20 (polyoxyethylene sorbitan monolaurate, CAS RN 9005-64-5) to give a final dose of 15.625, 62.5 or 250 g/ha of test compound.
(§2) The test plants were then grown on under controlled conditions in a glasshouse (at 24/16° C., day/night; 14 hours light; 65% humidity) and watered twice daily. After 13 days the test was evaluated (100=total damage to plant; 0=no damage to plant). A dash (-) means no test result.

[2] = tested on: corn (Zea mays); test: Test G Pre-Emergence Protocol; details: evaluated after 13 days
Protocol: as §1, §2

[3] = tested on: giant foxtail (Setaria faberi); test: Test G Pre-Emergence Protocol; details: evaluated after 13 days
Protocol: as §1, §2

[4] = tested on: ivy-leaved morning glory (Ipomoea hederacea); test: Test G Pre-Emergence Protocol; details: evaluated after 13 days
Protocol: as §1, §2

[5] = tested on: redroot pigweed (Amaranthus retroflexus); test: Test G Pre-Emergence Protocol; details: evaluated after 13 days
Protocol: as §1, §2

[6] = tested on: velvetleaf (Abutilon theophrasti); test: Test G Pre-Emergence Protocol; details: evaluated after 13 days
Protocol: as §1, §2

[7] = tested on: barnyardgrass (Echinochloa crus-galli); test: Test G Post-Emergence Protocol
Protocol: as §1, with “8 days” for “one day”
as §2

[8] = tested on: corn (Zea mays); test: Test G Post-Emergence Protocol
Protocol: as §1, with “8 days” for “one day”
as §2

[9] = tested on: giant foxtail (Setaria faberi); test: Test G Post-Emergence Protocol
Protocol: as §1, with “8 days” for “one day”
as §2

[10] = tested on: ivy-leaved morning glory (Ipomoea hederacea); test: Test G Post-Emergence Protocol
Protocol: as §1, with “8 days” for “one day”
as §2

[11] = tested on: redroot pigweed (Amaranthus retroflexus); test: Test G Post-Emergence Protocol
Protocol: as §1, with “8 days” for “one day”
as §2

[12] = tested on: velvetleaf (Abutilon theophrasti); test: Test G Post-Emergence Protocol
Protocol: as §1, with “8 days” for “one day”
as §2

[13] = 62.5 g ai/ha, 100=total damage to plant, 0=no damage to plant
[14] = 15.625 g ai/ha, evaluated after 13 days (100=total damage to plant; 0=no damage to plant)
[15] = 62.5 g ai/ha, evaluated after 13 days, 100=total damage to plant, 0=no damage to plant
[16] = 250 g ai/ha, evaluated after 13 days, 100=total damage to plant, 0=no damage to plant

For `CN1C[C@H](c2ccc(C(F)(F)F)cc2)[C@@H](C(=O)Nc2c[n+]([O-])ccc2C(F)(F)F)C1=O` (racemic) [Compound 1732], the “Barnyardgrass damage rating (100=total damage to plant; 0=no damage to plant)” value ([1]; 15.625 g ai/ha) was 0, the Barnyardgrass damage rating [1, 13] was 0 and the “Barnyardgrass damage rating (100=total damage to plant; 0=no damage to plant)” value ([1]; 250 g ai/ha) was 0. For the same compound, the “Corn damage rating (100=total damage to plant; 0=no damage to plant)” value ([2]; 15.625 g ai/ha) was 0, the Corn damage rating [2, 13] was 0 and the “Corn damage rating (100=total damage to plant; 0=no damage to plant)” value ([2]; 250 g ai/ha) was 0. The “Foxtail, Giant damage rating (100=total damage to plant; 0=no damage to plant)” value ([3]; 15.625 g ai/ha) was 0, the “Foxtail, Giant damage rating” value [3, 13] was 20 and the “Foxtail, Giant damage rating (100=total damage to plant; 0=no damage to plant)” value ([3]; 250 g ai/ha) was 50. The “Morningglory, Ivy-leaved damage rating (100=total damage to plant; 0=no damage to plant)” value ([4]; 15.625 g ai/ha) was 0, the “Morningglory, Ivy-leaved damage rating” value [4, 13] was 0 and the “Morningglory, Ivy-leaved damage rating (100=total damage to plant; 0=no damage to plant)” value ([4]; 250 g ai/ha) was 0. The “Pigweed, Redroot damage rating (100=total damage to plant; 0=no damage to plant)” value ([5]; 15.625 g ai/ha) was 0, the “Pigweed, Redroot damage rating” value [5, 13] was 0 and the “Pigweed, Redroot damage rating (100=total damage to plant; 0=no damage to plant)” value ([5]; 250 g ai/ha) was 10. The “Velvetleaf damage rating (100=total damage to plant; 0=no damage to plant)” value ([6]; 15.625 g ai/ha) was 0, the Velvetleaf damage rating [6, 13] was 0 and the “Velvetleaf damage rating (100=total damage to plant; 0=no damage to plant)” value ([6]; 250 g ai/ha) was 10. It also gave a Barnyardgrass damage rating [7, 14] of 0, a Barnyardgrass damage rating [7, 15] of 0 and a Barnyardgrass damage rating [7, 16] of 20. For the same compound, the Corn damage rating [8, 14] was 0, the Corn damage rating [8, 15] was 0 and the Corn damage rating [8, 16] was 0. For the same compound, the “Foxtail, Giant damage rating” value [9, 14] was 0, the “Foxtail, Giant damage rating” value [9, 15] was 10 and the “Foxtail, Giant damage rating” value [9, 16] was 50. For the same compound, the “Morningglory, Ivy-leaved damage rating” value [10, 14] was 0, the “Morningglory, Ivy-leaved damage rating” value [10, 15] was 0 and the “Morningglory, Ivy-leaved damage rating” value [10, 16] was 0. For the same compound, the “Pigweed, Redroot damage rating” value [11, 14] was 0, the “Pigweed, Redroot damage rating” value [11, 15] was 10 and the “Pigweed, Redroot damage rating” value [11, 16] was 20. It also gave a Velvetleaf damage rating [12, 14] of 0, a Velvetleaf damage rating [12, 15] of 10 and a Velvetleaf damage rating [12, 16] of 0.
